Data taken from patent publication US20250296937A1, “CYCLIC BISBENZYL TETRAHYDROISOQUINOLINE COMPOUND, AND PREPARATION METHOD THEREFOR AND USE THEREOF” (Shanghai Institute of Materia Medica, Chinesse Academy of …, priority 2021, published 2025).
Entries after “also recorded” stand apart in the source; their conditions may differ.

Assays:
[1] = system: delta mutant strain of SARS-CoV-2; assay type: cell-based; details: for EC50: read-out: Inhibition against viral replication of delta mutant strain EC50
[2] = system: South African mutant strain of SARS-CoV-2; assay type: cell-based; details: for EC50: read-out: Inhibition against viral replication of South African mutant strain EC50

COc1cc2c3cc1Oc1c(OC)c(OC)cc4c1[C@H](Cc1ccc(cc1)Oc1cc(ccc1C(N)=O)C[C@H]3N(C)CC2)N(C)CC4 [Compound 4]
inhibition against the delta strain [1]: strong inhibition; also recorded: significantly inhibited | EC50 [1]: 1500 nM

COc1cc2c3cc1Oc1c(OC)c(OC)cc4c1[C@H](Cc1ccc(cc1)Oc1cc(ccc1C(=O)NC1CC1)C[C@H]3N(C)CC2)N(C)CC4 [Compound 6]
inhibition against the South African strain [2]: strong inhibition; also recorded: significantly inhibited | EC50 [2]: 2200 nM

CNC(=O)c1ccc2cc1Oc1ccc(cc1)C[C@H]1c3c(cc(OC)c(OC)c3Oc3cc4c(cc3OC)CCN(C)[C@@H]4C2)CCN1C [Compound 5]
inhibition against the South African strain [2]: strong inhibition; also recorded: significantly inhibited | EC50 [2]: 2700 nM

CCCCNC(=O)Oc1ccc2cc1Oc1ccc(cc1)C[C@H]1c3c(cc(OC)c(OC)c3Oc3cc4c(cc3OC)CCN(C)[C@@H]4C2)CCN1C [Compound 2]
inhibition against the delta strain [1]: strong inhibition; also recorded: significantly inhibited | EC50 [1]: 300 nM
